Measurements reported in ChEMBL document CHEMBL1133145, “Novel photoreactive cinnamic acid analogues to elucidate phenylalanine ammonia-lyase” (Bioorg Med Chem Lett, 2000).

Test: Inhibitory activity against Phenylalanine Ammonia-lyase (PAL)

COc1cc(C2(C(F)(F)F)N=N2)ccc1/C=C/C(=O)O
Ki: 240 µM

O=C(O)/C=C/c1ccc(C2(C(F)(F)F)N=N2)cc1OCCOCCOCCNC(=O)CCCC[C@@H]1SCC2NC(=O)NC21 (some centres not stated)
Ki: 520 µM
